In ChEMBL document CHEMBL3853298, “Total synthesis and in vitro bioevaluation of clavaminols A, C, H & deacetyl clavaminol H as potential chemotherapeutic and antibiofilm agents” (Eur J Med Chem, 2016):

Tests used:
Type in all cases: functional, cell-based
[1] = Cytotoxicity against human MCF7 cells assessed as cell growth inhibition by MTT assay
[2] = Cytotoxicity against human SKOV3 cells assessed as cell growth inhibition by MTT assay; settings: SK-OV-3
[3] = Cytotoxicity against human DU145 cells assessed as cell growth inhibition by MTT assay; settings: DU-145

COc1cccc2c1C(=O)c1c(O)c3c(c(O)c1C2=O)C[C@@](O)(C(=O)CO)C[C@@H]3O[C@H]1C[C@H](N)[C@H](O)[C@H](C)O1 [DOXORUBICIN]
IC50 [1]: 800 nM | IC50 [2]: 700 nM | IC50 [3]: 700 nM
